Holding throughout (type): biochemical
In test [1] the target is T1, Human recombinant poly(ADP-ribose)-polymerase 1 (Homo sapiens, UniProt P09874).
T1 construct: made in house
Put plainly: autopoly(ADP-ribosyl)ation of PARP-1, [32P]NAD+ incorporation. To be noted: autopoly(ADP-ribosyl)ation, 0.3 mM NAD+. The source says:
(§1) The oligonucleotides were purchased from Biosset (Novosibirsk, Russia). The reagents, solvents and the basic components of buffers were purchased from Sigma (St. Louis, MO, USA), Acros organics (Waltham, MA, USA) or Promega (Madison, WI, USA). γ–[^32P]-ATP and α–[^32P]-ATP (with specific activities of 5000 and 3000 Ci/mmol, respectively) were from the Laboratory of Biotechnology (Institute of Chemical Biology and Fundamental Medicine, Novosibirsk, Russia). T4 polynucleotide kinase was from Biosan (Novosibirsk, Russia). SUMO fusion expression vector pETHSUL (GenBank: EF205333.1) and pSUPER vector coding for the catalytic domain of the S. cerevisiae SUMO hydrolase dtUD1 were kindly provided by Dr. P. Loll (Drexel University, Philadelphia, USA). His6 and Strep-II double-tagged dtUD1 hydrolase was expressed and purified as described in ref. [81]. Human recombinant poly(ADP-ribose)-polymerase 1 (EC 2.4.2.30) was prepared as described previously. Murine recombinant poly(ADP-ribose)-polymerase 2 (EC 2.4.2.30) was purified as described previously. Plasmid encoding human PARP-3 was kindly provided by Dr. A. Ishchenko (Gustave Roussy, Université Paris-Saclay, France). Poly(ADP-ribose)-polymerase 3 (EC 2.4.2.30) was purified according to [6].
(§2) The reaction of autopoly(ADP-ribosyl)ation was carried out as follows: for PARP-1 50 mM tris-HCl, pH 8.0, 20 mM MgCl2, 150 mM NaCl, and 7 mM β-mercaptoethanol, activated DNA 2 OE/mL, 0.3 mM [^32P] NAD+ at 37 °C. The reaction was initiated by adding PARP-1 to 200 nM and the reaction mixtures were incubated for 1.5 min. For PARP-2: 50 mM tris-HCl, pH 8.0, 3 mM spermin, 150 mM NaCl, and 7 mM β-mercaptoethanol, activated DNA 2 OE/mL, 0.6 mM [^32P] NAD+ at 37 °C. The reaction was initiated by adding PARP-2 to 800 nM and the reaction mixtures were incubated for 5 min. The reaction was stopped by placing 10 μL aliquots onto Whatman 1 paper filters soaked with 5 % TCA. The filters were washed with 5% TCA for four times and dried in air after the removal of TCA with 90% ethanol. The incorporation of radioactivity into the product was calculated with a Tri-Carb 2800 scintillation counter (Perkin Elmer, Waltham, MA, USA) according to the Cherenkov method or using Typhoon FLA 9500 scanner (GE Healthcare, Chicago, IL, USA). To determine the IC50 value of inhibitors (concentration of the compound required reducing the enzyme activity by 50%), we studied the activity of the enzyme at different concentrations of inhibitors. Measurements were done in at least two independent experiments. IC50 values were calculated using the Origin Pro 8.0 software by nonlinear regression analysis.

Test [2] deals with T2, Murine recombinant poly(ADP-ribose)-polymerase 2 (Mus musculus, UniProt O88554).
T2 construct: made in house
T2 sequence (O88554 whole entry): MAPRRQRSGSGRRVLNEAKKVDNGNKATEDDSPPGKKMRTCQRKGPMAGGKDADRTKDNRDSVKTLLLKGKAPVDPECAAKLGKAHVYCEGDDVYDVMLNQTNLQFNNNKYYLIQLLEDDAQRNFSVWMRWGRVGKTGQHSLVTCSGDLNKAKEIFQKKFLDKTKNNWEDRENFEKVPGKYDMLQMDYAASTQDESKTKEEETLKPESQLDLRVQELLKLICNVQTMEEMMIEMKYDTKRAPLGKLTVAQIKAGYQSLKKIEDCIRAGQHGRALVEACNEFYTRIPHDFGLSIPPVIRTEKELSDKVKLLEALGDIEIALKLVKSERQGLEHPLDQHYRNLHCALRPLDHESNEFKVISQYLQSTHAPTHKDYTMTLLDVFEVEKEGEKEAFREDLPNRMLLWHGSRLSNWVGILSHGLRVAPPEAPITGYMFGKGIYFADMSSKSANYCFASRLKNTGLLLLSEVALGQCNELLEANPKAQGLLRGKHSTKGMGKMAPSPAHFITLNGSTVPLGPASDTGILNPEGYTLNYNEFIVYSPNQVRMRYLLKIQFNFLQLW
Put plainly: autopoly(ADP-ribosyl)ation of PARP-2, [32P]NAD+ incorporation. To be noted: autopoly(ADP-ribosyl)ation, 0.6 mM NAD+.
Source text: as §1, §2

For another test, the target named is T3, PARP-1 (Homo sapiens, UniProt P09874).
T3 construct: made in house
T3 sequence (P09874 whole entry): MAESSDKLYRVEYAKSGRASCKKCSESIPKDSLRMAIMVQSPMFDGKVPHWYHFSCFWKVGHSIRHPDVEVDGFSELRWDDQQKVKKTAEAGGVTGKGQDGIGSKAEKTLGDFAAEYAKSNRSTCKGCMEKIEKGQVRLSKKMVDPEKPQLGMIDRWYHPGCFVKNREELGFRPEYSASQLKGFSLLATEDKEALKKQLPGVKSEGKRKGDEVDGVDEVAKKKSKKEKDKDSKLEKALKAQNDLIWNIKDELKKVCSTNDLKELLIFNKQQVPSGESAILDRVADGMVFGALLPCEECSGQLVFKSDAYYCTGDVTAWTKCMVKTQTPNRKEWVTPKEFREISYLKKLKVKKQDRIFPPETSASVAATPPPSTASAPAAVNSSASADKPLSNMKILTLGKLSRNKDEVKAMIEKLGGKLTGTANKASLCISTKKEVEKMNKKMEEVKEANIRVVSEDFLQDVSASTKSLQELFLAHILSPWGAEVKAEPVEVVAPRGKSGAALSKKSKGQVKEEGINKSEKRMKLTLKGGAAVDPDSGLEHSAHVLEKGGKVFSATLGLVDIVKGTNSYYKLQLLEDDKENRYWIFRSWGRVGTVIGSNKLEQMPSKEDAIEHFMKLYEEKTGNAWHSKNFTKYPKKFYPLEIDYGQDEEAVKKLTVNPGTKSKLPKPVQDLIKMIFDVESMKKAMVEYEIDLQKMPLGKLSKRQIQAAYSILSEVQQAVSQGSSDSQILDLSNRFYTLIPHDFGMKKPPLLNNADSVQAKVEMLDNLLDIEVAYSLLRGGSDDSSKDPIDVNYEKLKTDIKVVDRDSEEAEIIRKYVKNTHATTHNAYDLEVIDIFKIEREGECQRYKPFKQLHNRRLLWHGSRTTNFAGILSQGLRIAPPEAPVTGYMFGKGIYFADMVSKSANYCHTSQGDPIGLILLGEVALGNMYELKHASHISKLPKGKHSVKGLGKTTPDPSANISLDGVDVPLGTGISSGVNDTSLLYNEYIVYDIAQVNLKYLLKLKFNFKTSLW
Description: kinetics of PARP-1 inhibition (Km, Vmax, type of inhibition) by fluorescence anisotropy. To be noted: for type of inhibition: PARP-1 catalyzed reaction, versus NAD+. The protocol:
The type of inhibition was determined based on at what stage of the reaction the inhibitor binds to the enzyme (before or after the substrate binding) and where it binds (at the substrate binding site or elsewhere). There are four types of inhibition: competitive, whereby an inhibitor binding occurs at the substrate-binding site; noncompetitive, where an inhibitor binds at the allosteric center; mixed with inhibitor binding at both the active and allosteric center; or uncompetitive under an inhibitor binding to the enzyme-substrate complex. Determination of the type of inhibition is necessary to confirm the computer simulation data and to plan further modifications of the inhibitor structure. The type of inhibition can be determined from the plots of the reaction parameters, such as maximum rates, Vmax and the apparent Michaelis constant, Km, values, versus inhibitor concentration. […] Noncompetitive inhibition leads to a decrease of Vmax and retention of the Km values. Mixed inhibition is a superposition of the first two, and is characterized by a decrease in the reaction rate and an increase in Km values. In the case of uncompetitive inhibition, both […].
To determine the type of inhibition of the studied compounds, the activity of PARP-1 was measured at presence of three different inhibitor concentrations at nine NAD+ substrate concentrations by the fluorescence anisotropy technique. Based on the obtained data, dependence graphs of the initial reaction rate on the substrate concentration were constructed, and reaction parameters such as maximum reaction rate (Vmax) and apparent Michaelis constant (Km) values were found (Tables S3 and S4, Supporting). To determine the type of inhibition, we plotted the dependence graph of Vmax and Km values on the inhibitor concentration using OriginPro 8.6.0 software. (Figure 3). […] Therefore, the results of modeling of the binding type of these compounds in the enzyme’s active center are legitimate.
The determination of the kinetic parameters of inhibition Km and Vmax was carried out as described. In all experiments, the points on the experimental curves represent the average of a minimum three independent experiments.
In general terms: In fluorescence polarisation assays a small probe gives low polarisation when free and higher when bound to something large.

The target of the next test is T4, PARP-3 (Homo sapiens, UniProt Q9Y6F1).
T4 construct: made in house
T4 sequence (Q9Y6F1 1-533): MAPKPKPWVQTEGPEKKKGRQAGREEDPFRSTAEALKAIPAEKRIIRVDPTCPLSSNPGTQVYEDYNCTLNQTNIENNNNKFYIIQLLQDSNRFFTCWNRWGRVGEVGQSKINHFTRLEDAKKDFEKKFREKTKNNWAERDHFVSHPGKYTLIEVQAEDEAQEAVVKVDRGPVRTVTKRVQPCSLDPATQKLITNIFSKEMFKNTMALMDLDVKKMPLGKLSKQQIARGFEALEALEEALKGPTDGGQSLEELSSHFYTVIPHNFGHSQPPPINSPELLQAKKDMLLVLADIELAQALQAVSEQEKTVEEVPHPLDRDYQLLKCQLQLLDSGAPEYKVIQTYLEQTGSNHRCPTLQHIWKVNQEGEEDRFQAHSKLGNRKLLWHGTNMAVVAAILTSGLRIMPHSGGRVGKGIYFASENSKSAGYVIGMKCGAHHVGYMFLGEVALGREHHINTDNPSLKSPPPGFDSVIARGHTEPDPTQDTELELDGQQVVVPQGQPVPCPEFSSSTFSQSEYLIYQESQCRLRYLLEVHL
Description: auto(ADP-ribosyl)ation of PARP-3.
Source text: as §1
The reactions were performed in the presence of 2 mM MgCl2 as a cofactor in HDB buffer. The reaction mixtures (final volume 10 μL) contained 0.1 μM DNA substrate, 0.5 μM PARP-3, 5 μM [^32P]-NAD+ and 0, 35 or 95 μM NAD+ in the absence or presence of various concentrations of the inhibitor, which are indicated on the figures. The reaction mixtures were incubated for 20 min at 37 °С then terminated by adding the 5x gel loading Laemmli sample buffer and heating at 85 °C for 10 min. The mixtures were resolved on a 10% SDS-PAG as described in [84] The gels were dried and subjected to autoradiography and/or phosphorimaging for quantitation using the Typhoon imaging system from GE Healthcare Life Sciences. Quantitative processing was carried out using OriginPro7.5, Microcal Software, USA. […]

From publication PMC6982223, “Design, Synthesis and Molecular Modeling Study of Conjugates of ADP and Morpholino Nucleosides as A Novel Class of Inhibitors of PARP-1, PARP-2 and PARP-3” (International Journal of Molecular Sciences, 2019) come the findings set out here.

T1 sequence (P09874 whole entry): as the sequence (P09874 whole entry) above

The term IC50 denotes the concentration needed to halve the response being measured. For `Nc1ncnc2c1ncn2C1OC(COP(=O)(O)OP(=O)(O)OCC2CNCC(n3cc(I)c(=O)[nH]c3=O)O2)C(O)C1O` (stereo not drawn) [Compound 4IU], the IC50 is 255 µM in test [1] and 160 µM in test [2]. Besides, the type of inhibition entry at PARP-1 is reported as “mixed inhibitor”. The Vmax on PARP-1 (inhibitor concentration 50 μМ) is given as 0.16 RFU/sec; on PARP-1 (inhibitor concentration 100 μМ), 0.15 RFU/sec; on PARP-1 (inhibitor concentration 500 μМ), 0.14 RFU/sec.
Turning to `Nc1ncnc2c1ncn2C1CNCC(CNP(=O)(O)OP(=O)(O)OCC2OC(n3cnc4c(N)ncnc43)C(O)C2O)O1` (stereo not drawn) [Compound 10A], the values for the half-maximal inhibitory concentration (IC50) in test [1] and in test [2] were 353 ± 4 µM and 63 ± 10 µM, respectively. Besides, on PARP-1, the type of inhibition entry was “mixed inhibitor”. Besides, the values for the Vmax on PARP-1 (inhibitor concentration 300 μМ), at PARP-1 (inhibitor concentration 600 μМ) and on PARP-1 (inhibitor concentration 900 μМ) were 0.090 RFU/sec, 0.068 RFU/sec and 0.062 RFU/sec, respectively. Also, the “activity against PARP-3” value at PARP-3 is “lack of activity”.
Take `O=c1[nH]c(=O)n([C@H]2CNC[C@@H](CO)O2)cc1I` [Compound 11IU]: the IC50 stood at 53 ± 12 µM in test [1] and 85 ± 9 µM in test [2]. In addition, the type of inhibition entry on PARP-1 is reported as “competitive inhibitors”. Also, the Vmax on PARP-1 (inhibitor concentration 50 μМ) is on record as 0.066 RFU/sec; at PARP-1 (inhibitor concentration 100 μМ), 0.066 RFU/sec; on PARP-1 (inhibitor concentration 500 μМ), 0.060 RFU/sec.
Turning to `NC(=O)c1cccc(N)c1` [Compound 3-AB, 3-aminobenzamide, reference compound], the Vmax at PARP-1 (inhibitor concentration 50 μМ), on PARP-1 (inhibitor concentration 100 μМ) and on PARP-1 (inhibitor concentration 500 μМ) was 0.16 RFU/sec throughout.
Consider `Nc1ncnc2c1ncn2C1OC(COP(=O)(O)OP(=O)(O)NCC2CNCC(n3cc(I)c(=O)[nH]c3=O)O2)C(O)C1O` (stereo not drawn) [Compound 10IU], for which the IC50 in test [1] is 126 µM; in test [2] it was 110 µM. For the same compound, the type of inhibition entry on PARP-1 is “competitive inhibitors”. Moreover, the values for the Vmax on PARP-1 (inhibitor concentration 50 μМ), on PARP-1 (inhibitor concentration 100 μМ) and on PARP-1 (inhibitor concentration 500 μМ) were 0.19 RFU/sec, 0.18 RFU/sec and 0.17 RFU/sec, respectively. For the same compound, at PARP-3, the “activity against PARP-3” value is “low activity”. The “inhibitory activity in the auto(ADP-ribosyl)ation reaction of PARP-3” value on PARP-3 (1 mM concentration) is recorded as “significant inhibitory activity”.
